Source: patent US20100190824A1, “Novel Substituted Piperidones as HSP Inducers” (priority 2007, published 2010)

What was measured:
HSP70b mRNA = experiment: Cellular expression of HSP-70 mRNA in primary mixed neurons (real-time PCR); format: cell-based; details: fold induction of HSP70b mRNA relative to vehicle treated control; primary mixed neurons from neonatal rat cerebellum; 4 hours; normalized to 18S rRNA
Experimental: Experiments set forth in this section were conducted to determine whether the compounds of the present invention are able to elevate the expression of HSP-70 gene in cells.
Hela cell-line or primary mixed neurons derived from neonatal rat cerebellum were employed. Induction was carried out for the indicated dose(s) for 4 hours duration and total RNA was isolated. Expression of HSP70b mRNA along-with expression of 18S rRNA was monitored by real-time PCR. HSP70b mRNA expression was normalized relative to the expression of 18S rRNA.
The results for test compounds were expressed as fold induction of HSP-70 mRNA relative to vehicle treated control and are as shown in Table 2 & 3.

TNF-α mRNA = experiment: Inhibition of LPS-induced TNF-α expression in PMA differentiated THP-1 cells; format: cell-based, Human; details: LPS (1 ug/ml) and compound for 4 hours, LPS alone as 100%
Experimental: The purpose of the present study was to determine the inhibition of lipopolysaccharide(LPS)-induced TNF-α expression in phorbol merstyl ester (PMA) differentiated THP-1 cells.
Human monocytic leukaemia cell line (THP-1), differentiated into macrophage-like cells by PMA treatment was employed. Differentiated cells were treated with either LPS (1 ug/ml) alone or with LPS (1 ug/ml) and compound for 4 hours. Total RNA was isolated and expression of TNF-αmRNA along-with expression of 18S rRNA was monitored by real-time PCR. TNF-α mRNA expression was normalized relative to the expression of 18S rRNA Considering TNF-α expression for cells treated with LPS alone as 100%; the results for test compounds were expressed as % inhibition of TNF-α expression and are as shown in Table 4

Row | Compound | HSP Induction in mixed neuron (HSP70b mRNA) | TNF-alpha Inhibition (TNF-α mRNA)
1 | CC1(C)CN(Cc2ccco2)C(c2ccccc2)C(=Cc2ccccn2)C1=O (centres unmarked) [Compound 82, 1-Furan-2-ylmethyl-5,5-dimethyl-2-phenyl-3-[1-pyridin-2-yl-methylidene]-piperidin-4-one] | (+++) (9-16 fold) | (++++) (>80%)
2 | CSc1ccc(C2/C(=C\c3cccc(N4CCOCC4)n3)C(=O)C(C)(C)CN2Cc2ccccc2)cc1 (centres unmarked) [Compound 42, 1-Benzyl-5,5-dimethyl-2-(4-methylsulfanyl-phenyl)-3-[1-(6-morpholin-4-yl-pyridin-2-yl)-meth-(E)-ylidene]-piperidin-4-one] | (+++) (9-16 fold) | (++) (41-60%)
3 | CC1(C)CN(CCc2ccccc2)C(c2ccccc2)C(=Cc2cccc(N3CCOCC3)n2)C1=O (centres unmarked) [Compound 95, 5,5-Dimethyl-3-[1-(6-morpholin-4-yl-pyridin-2-yl)-methylidene]-1-phenethyl-2-phenyl-piperidin-4-one] | (++) (5-8 fold) | 
4 | CC1(C)CN(CCc2ccccc2)C(c2ccccc2)C(=Cc2ccccn2)C1=O (centres unmarked) [Compound 94, 5,5-Dimethyl-1-phenethyl-2-phenyl-3-[1-pyridin-2-yl-methylidene]-piperidin-4-one] | (+) (2-4 fold) | 
5 | COc1cc(C2C(=Cc3ccccn3)C(=O)C(C)(C)CN2Cc2ccco2)cc(OC)c1OC (centres unmarked) [Compound 90, 1-Furan-2-ylmethyl-5,5-dimethyl-3-[1-pyridin-2-yl-methylidene]-2-(3,4,5-trimethoxy-phenyl)-piperidin-4-one] | (+) (2-4 fold) | (++) (41-60%)
6 | COC(=O)N1CC(=Cc2ccccn2)C(=O)C(C)(C)C1Cc1ccc(OC)cc1 (centres unmarked) [Compound 52, 2-(4-Methoxy-benzyl)-3,3-dimethyl-4-oxo-5-[1-pyridin-2-yl-methylidene]-piperidine-1-carboxylic acid methyl ester] | (++) (5-8 fold) | (++++) (>80%)
7 | CC1(C)CN(CCc2cccs2)CC(=Cc2cccc(N3CCOCC3)n2)C1=O [Compound 69, 3,3-Dimethyl-5-[1-(6-morpholin-4-yl-pyridin-2-yl)-methylidene]-1-(2-thiophen-2-yl-ethyl)-piperidin-4-one] | (++++) (>16 fold) | (+++) (61-80%)
8 | COc1ccc(CN2CC(C)(C)C(=O)C(=Cc3cccc(N4CCOCC4)n3)C2c2ccc(C(F)(F)F)cc2)cc1 (centres unmarked) [Compound 63, 1-(4-Methoxy-benzyl)-5,5-dimethyl-3-[1-(6-morpholin-4-yl-pyridin-2-yl)-methylidene]-2-(4-trifluoromethyl-phenyl)-piperidin-4-one] | (++) (5-8 fold) | (++) (41-60%)
9 | CC1(C)C(=O)C(=Cc2ccccn2)CN(C(=S)Nc2ccccc2)C1c1ccc(S(C)(=O)=O)cc1 (centres unmarked) [Compound 105, 2-(4-Methanesulfonyl-phenyl)-3,3-dimethyl-4-oxo-5-[1-pyridin-2-yl-methylidene]-piperidine-1-carbothioic acid phenylamide] | (++) (5-8 fold) | (++) (41-60%)
10 | CC1(C)CN(Cc2ccccc2)C(c2ccc(Cl)c(Cl)c2)C(=Cc2ccccn2)C1=O (centres unmarked) [Compound 45, 1-Benzyl-2-(3,4-dichloro-phenyl)-5,5-dimethyl-3-[1-pyridin-2-yl-methylidene]-piperidin-4-one] | (++) (5-8 fold) | 
11 | COc1ccc(CC2N(C(=O)NCc3ccccc3)CC(=Cc3ccccn3)C(=O)C2(C)C)cc1 (centres unmarked) [Compound 66, 2-(4-Methoxy-benzyl)-3,3-dimethyl-4-oxo-5-[1-pyridin-2-yl-methylidene]-piperidine-1-carboxylic acid benzylamide] | (++) (5-8 fold) | 
12 | CC1(C)CN(Cc2ccc(F)cc2)C(c2ccccc2)C(=Cc2cccc(N3CCOCC3)n2)C1=O (centres unmarked) [Compound 81, 1-(4-Fluoro-benzyl)-5,5-dimethyl-3-[1-(6-morpholin-4-yl-pyridin-2-yl)-methylidene]-2-phenyl-piperidin-4-one] | (+) (2-4 fold) | 
13 | CSc1ccc(C=C2CN(Cc3ccccc3)CC(C)(C)C2=O)cc1 [Compound 8, 1-Benzyl-3,3-dimethyl-5-[1-(4-methylsulfanyl-phenyl)-methylidene]-piperidin-4-one] |  | (++++) (>80%)
14 | Cc1ccc(CN2CC(C)(C)C(=O)C(=Cc3cccc(N4CCOCC4)n3)C2c2ccccc2)cc1 (centres unmarked) [Compound 232, 5,5-Dimethyl-1-(4-methyl-benzyl)-3-[1-(6-morpholin-4-yl-pyridin-2-yl)-methylidene]-2-phenyl-piperidin-4-one] | (++) (5-8 fold) | 
15 | CSc1ccc(C2C(=Cc3ccccn3)C(=O)C(C)(C)CN2Cc2cccs2)cc1 (centres unmarked) [Compound 61, 5,5-Dimethyl-2-(4-methylsulfanyl-phenyl)-3-[1-pyridin-2-yl-methylidene]-1-thiophen-2-ylmethyl-piperidin-4-one] | (++++) (>16 fold) | (+++) (61-80%)
16 | COc1ccc(OC)c(C2C(=Cc3cccc(N4CCN(C)CC4)n3)C(=O)C(C)(C)CN2Cc2ccc(C)cc2)c1 (centres unmarked) [Compound 234, 2-(2,5-Dimethoxy-phenyl)-5,5-dimethyl-1-(4-methyl-benzyl)-3-[1-[6-(4-methyl-piperazin-1-yl)-pyridin-2-yl]-methylidene]-piperidin-4-one] | (+++) (9-16 fold) | (+++) (61-80%)
17 | CC1(C)CN(Cc2ccc(F)cc2)CC(=Cc2cccc(N3CCOCC3)n2)C1=O [Compound 73, 1-(4-Fluoro-benzyl)-3,3-dimethyl-5-[1-(6-morpholin-4-yl-pyridin-2-yl)-methylidene]-piperidin-4-one] | (+) (2-4 fold) | 
18 | COc1ccc(CN2CC(C)(C)C(=O)C(=Cc3cccc(N4CCOCC4)n3)C2c2ccccc2)cc1 (centres unmarked) [Compound 62, 1-(4-Methoxy-benzyl)-5,5-dimethyl-3-[1-(6-morpholin-4-yl-pyridin-2-yl)-methylidene]-2-phenyl-piperidin-4-one] | (+) (2-4 fold) | 
19 | COc1ccc(C2C(=Cc3cccc(N4CCOCC4)n3)C(=O)C(C)(C)CN2Cc2ccccc2)c(F)c1 (centres unmarked) [Compound 92, 1-Benzyl-2-(2-fluoro-4-methoxy-phenyl)-5,5-dimethyl-3-[1-(6-morpholin-4-yl-pyridin-2-yl)-methylidene]-piperidin-4-one] | (++) (5-8 fold) | 
20 | CC1(C)CN(Cc2ccccc2)C(c2ccc(S(C)(=O)=O)cc2)C(=Cc2cccc(N3CCOCC3)n2)C1=O (centres unmarked) [Compound 227, 1-Benzyl-2-(4-methanesulfonyl-phenyl)-5,5-dimethyl-3-[1-(6-morpholin-4-yl-pyridin-2-yl)-methylidene]-piperidin-4-one] | (++++) (>16 fold) | (++++) (>80%)
21 | COc1ccc(CN2CC(C)(C)C(=O)C(=Cc3cccc(N4CCOCC4)n3)C2c2ccccc2F)cc1 (centres unmarked) [Compound 86, 2-(2-Fluoro-phenyl)-1-(4-methoxy-benzyl)-5,5-dimethyl-3-[1-(6-morpholin-4-yl-pyridin-2-yl)-methylidene]-piperidin-4-one] | (+) (2-4 fold) | 
22 | CC1(C)CN(Cc2ccccc2)CC(=Cc2ccc(C(=O)N3CCOCC3)cc2)C1=O [Compound 7, 1-Benzyl-3,3-dimethyl-5-[1-[4-(morpholine-4-carbonyl)-phenyl]-methylidene]-piperidin-4-one] |  | (+++) (61-80%)
23 | CC1(C)CN(C(=O)OCc2ccccc2)CC(=Cc2ccccn2)C1=O [Compound 2, 3,3-Dimethyl-4-oxo-5-[1-pyridin-2-yl-methylidene]-piperidine-1-carboxylic acid benzyl ester] |  | (+++) (61-80%)
24 | CC1(C)CN(Cc2ccccc2)CC(=Cc2ccccn2)C1=O [Compound 1, 1-Benzyl-3,3-dimethyl-5-[1-pyridin-2-yl-methylidene]-piperidin-4-one] |  | (++++) (>80%)
25 | Cc1cc(N2CC(=Cc3ccccn3)C(=O)C(C)(C)C2)no1 [Compound 64, 3,3-Dimethyl-1-(5-methyl-isoxazol-3-yl)-5-[1-pyridin-2-yl-methylidene]-piperidin-4-one] | (++++) (>16 fold) | 
26 | CC1(C)CN(Cc2cccs2)C(c2ccccc2F)C(=Cc2cccc(N3CCOCC3)n2)C1=O (centres unmarked) [Compound 57, 2-(2-Fluoro-phenyl)-5,5-dimethyl-3-[1-(6-morpholin-4-yl-pyridin-2-yl)-methylidene]-1-thiophen-2-ylmethyl-piperidin-4-one] | (+) (2-4 fold) | 
27 | CC1(C)CN(Cc2ccc(F)cc2)C(c2ccccc2)C(=Cc2ccccn2)C1=O (centres unmarked) [Compound 76, 1-(4-Fluoro-benzyl)-5,5-dimethyl-2-phenyl-3-[1-pyridin-2-yl-methylidene]-piperidin-4-one] | (+) (2-4 fold) | 
28 | CC1(C)CN(Cc2cccs2)C(c2ccccc2F)C(=Cc2ccccn2)C1=O (centres unmarked) [Compound 58, (2-Fluoro-phenyl)-5,5-dimethyl-3-[1-pyridin-2-yl-methylidene]-1-thiophen-2-ylmethyl-piperidin-4-one] | (+) (2-4 fold) | 
